For one assay, the target named is T1, BRM (Homo sapiens, UniProt P51531).
T1 construct: made in house; host or cells: High Five insect cells
Put plainly: ATPase catalytic activity of BRM, ADP-Glo in vitro biochemical assay. To be noted: ATPase catalytic activity, 30 nM BRM, 400 μM ATP, read-out: BRM IP50 (μM)*. In general terms: ADP-Glo turns the ADP formed in a reaction into a luminescent signal.

Another assay concerns the target T2, BRG-1 (Homo sapiens, UniProt P51532).
T2 construct: made in house; host or cells: High Five insect cells
The assay can be described thus: ATPase catalytic activity of BRG-1, ADP-Glo in vitro biochemical assay. To be noted: ATPase catalytic activity, 30 nM BRG-1, 400 μM ATP, read-out: BRG1 IP50 (μM)*.

T1 sequence (P51531 whole entry): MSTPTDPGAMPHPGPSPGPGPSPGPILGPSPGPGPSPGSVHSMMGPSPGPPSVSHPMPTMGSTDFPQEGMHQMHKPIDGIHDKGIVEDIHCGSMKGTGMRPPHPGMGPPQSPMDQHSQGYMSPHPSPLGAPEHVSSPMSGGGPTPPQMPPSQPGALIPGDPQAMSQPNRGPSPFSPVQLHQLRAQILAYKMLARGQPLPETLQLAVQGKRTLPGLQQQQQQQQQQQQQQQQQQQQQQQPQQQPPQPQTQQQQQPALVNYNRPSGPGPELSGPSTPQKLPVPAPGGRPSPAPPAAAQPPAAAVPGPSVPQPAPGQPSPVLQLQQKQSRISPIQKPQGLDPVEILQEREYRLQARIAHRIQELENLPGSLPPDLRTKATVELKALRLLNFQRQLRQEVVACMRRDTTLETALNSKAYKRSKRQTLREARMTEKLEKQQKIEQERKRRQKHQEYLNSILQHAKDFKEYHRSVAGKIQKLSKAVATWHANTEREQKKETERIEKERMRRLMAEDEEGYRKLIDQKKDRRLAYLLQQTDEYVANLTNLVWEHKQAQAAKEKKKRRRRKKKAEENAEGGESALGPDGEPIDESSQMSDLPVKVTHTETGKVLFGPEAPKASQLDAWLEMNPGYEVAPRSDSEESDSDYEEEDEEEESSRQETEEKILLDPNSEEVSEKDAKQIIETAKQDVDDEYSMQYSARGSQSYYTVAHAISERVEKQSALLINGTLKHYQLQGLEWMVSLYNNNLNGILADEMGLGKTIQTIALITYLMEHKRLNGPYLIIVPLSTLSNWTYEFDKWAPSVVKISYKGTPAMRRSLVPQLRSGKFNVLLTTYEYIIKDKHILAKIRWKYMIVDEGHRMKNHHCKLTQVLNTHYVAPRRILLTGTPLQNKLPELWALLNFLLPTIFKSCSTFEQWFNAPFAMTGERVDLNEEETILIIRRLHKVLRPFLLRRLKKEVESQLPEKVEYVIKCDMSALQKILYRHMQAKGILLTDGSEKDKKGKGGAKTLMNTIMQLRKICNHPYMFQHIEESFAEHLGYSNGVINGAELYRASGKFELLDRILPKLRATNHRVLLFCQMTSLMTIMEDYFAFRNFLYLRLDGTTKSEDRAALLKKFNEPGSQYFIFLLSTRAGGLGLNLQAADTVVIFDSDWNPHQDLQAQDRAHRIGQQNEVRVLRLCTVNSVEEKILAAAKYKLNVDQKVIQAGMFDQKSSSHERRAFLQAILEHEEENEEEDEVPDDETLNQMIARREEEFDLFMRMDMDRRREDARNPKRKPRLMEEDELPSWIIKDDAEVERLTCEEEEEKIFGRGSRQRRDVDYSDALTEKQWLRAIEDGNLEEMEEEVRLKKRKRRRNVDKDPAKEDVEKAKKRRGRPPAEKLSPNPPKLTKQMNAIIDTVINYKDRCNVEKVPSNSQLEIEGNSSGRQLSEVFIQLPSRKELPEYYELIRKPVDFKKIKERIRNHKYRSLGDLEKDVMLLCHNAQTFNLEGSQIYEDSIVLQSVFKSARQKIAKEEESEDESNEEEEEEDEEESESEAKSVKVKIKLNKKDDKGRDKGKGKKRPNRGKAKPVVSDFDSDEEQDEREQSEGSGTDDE
T2 sequence (P51532 whole entry): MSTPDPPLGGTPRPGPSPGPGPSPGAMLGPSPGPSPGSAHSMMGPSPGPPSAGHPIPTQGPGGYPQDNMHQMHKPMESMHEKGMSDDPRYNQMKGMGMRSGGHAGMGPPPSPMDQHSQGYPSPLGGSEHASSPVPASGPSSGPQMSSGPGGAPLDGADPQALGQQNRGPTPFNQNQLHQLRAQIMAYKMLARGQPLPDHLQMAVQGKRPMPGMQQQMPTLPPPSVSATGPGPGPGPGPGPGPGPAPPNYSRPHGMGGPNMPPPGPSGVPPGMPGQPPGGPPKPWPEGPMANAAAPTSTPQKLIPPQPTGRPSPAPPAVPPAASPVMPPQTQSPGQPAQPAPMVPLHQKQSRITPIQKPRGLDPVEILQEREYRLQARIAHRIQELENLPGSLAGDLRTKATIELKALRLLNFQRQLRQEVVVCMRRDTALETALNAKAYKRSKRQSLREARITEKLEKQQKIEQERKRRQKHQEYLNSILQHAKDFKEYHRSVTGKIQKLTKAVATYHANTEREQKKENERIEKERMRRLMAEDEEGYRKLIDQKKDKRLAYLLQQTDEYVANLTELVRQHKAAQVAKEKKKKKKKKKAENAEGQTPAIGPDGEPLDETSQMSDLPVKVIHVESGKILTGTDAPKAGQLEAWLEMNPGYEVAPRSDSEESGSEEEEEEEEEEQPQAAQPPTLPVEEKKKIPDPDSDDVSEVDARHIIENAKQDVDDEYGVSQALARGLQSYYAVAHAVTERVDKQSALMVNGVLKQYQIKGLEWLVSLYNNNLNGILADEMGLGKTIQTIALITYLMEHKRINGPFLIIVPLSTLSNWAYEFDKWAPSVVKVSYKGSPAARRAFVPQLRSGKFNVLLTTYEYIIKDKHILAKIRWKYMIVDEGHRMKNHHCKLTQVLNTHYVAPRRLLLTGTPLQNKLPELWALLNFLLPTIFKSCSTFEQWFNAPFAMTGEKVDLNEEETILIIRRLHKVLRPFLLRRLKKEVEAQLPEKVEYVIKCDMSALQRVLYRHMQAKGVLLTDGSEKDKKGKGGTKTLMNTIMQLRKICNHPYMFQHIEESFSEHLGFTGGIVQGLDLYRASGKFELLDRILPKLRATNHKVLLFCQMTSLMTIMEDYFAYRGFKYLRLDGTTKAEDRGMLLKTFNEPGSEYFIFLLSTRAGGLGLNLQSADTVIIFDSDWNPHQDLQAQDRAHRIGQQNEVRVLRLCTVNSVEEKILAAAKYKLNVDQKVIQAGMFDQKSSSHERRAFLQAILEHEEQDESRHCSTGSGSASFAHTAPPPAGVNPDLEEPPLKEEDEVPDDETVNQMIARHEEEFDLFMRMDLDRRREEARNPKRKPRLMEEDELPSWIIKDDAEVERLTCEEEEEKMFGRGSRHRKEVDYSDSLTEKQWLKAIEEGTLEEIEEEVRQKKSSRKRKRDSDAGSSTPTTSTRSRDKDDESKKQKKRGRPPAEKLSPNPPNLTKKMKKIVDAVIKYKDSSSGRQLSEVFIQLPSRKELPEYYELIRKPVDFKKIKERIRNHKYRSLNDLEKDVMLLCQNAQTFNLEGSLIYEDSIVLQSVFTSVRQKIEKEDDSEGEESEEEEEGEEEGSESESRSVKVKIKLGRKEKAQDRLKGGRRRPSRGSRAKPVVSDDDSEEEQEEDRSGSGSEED

In the case of `CS(=O)(=O)n1ccc(C(=O)NCC(=O)Nc2nc(-c3cccc(N4CC(n5ccnc5)C4)c3)cs2)c1` [Compound 172], the values for the IC50 at BRM and on BRG-1 were > 0.01 µM and > 0.1 µM, respectively.
For the molecule `CS(=O)(=O)n1ccc(C(=O)NCC(=O)Nc2nc(-c3cccc(N4CC(n5cccn5)C4)c3)cs2)c1` [Compound 174], the IC50 on BRM and on BRG-1 was > 0.01 µM throughout.
For `CN(C)C1CN(c2cccc(-c3csc(NC(=O)CNC(=O)c4ccn(S(C)(=O)=O)c4)n3)c2)C1` [Compound 175], the IC50 at BRM and on BRG-1 was > 0.01 µM each time.
For `CS(=O)(=O)n1ccc(C(=O)NCC(=O)Nc2nc(-c3cccc(N4CC(O)(C(F)(F)F)C4)c3)cs2)c1` [Compound 176], the IC50 on BRM and at BRG-1 was > 0.1 µM each time.
As to `CS(=O)(=O)n1ccc(C(=O)NCC(=O)Nc2nc(-c3cccc(N4CC[C@H](O)C4)c3)cs2)c1` [Compound 177], the IC50 at BRM and at BRG-1 was > 0.01 µM throughout.
Regarding `CS(=O)(=O)n1ccc(C(=O)NCC(=O)Nc2nc(-c3cccc(N4CC[C@@H](O)C4)c3)cs2)c1` [Compound 178], the IC50 at BRM and at BRG-1 was < 0.01 µM in each case.
For `CC1(O)CN(c2cccc(-c3csc(NC(=O)CNC(=O)c4ccn(S(C)(=O)=O)c4)n3)c2)C1` [Compound 179], the IC50 on BRM and on BRG-1 was > 0.01 µM throughout.
For the molecule `CO[C@H]1CN(c2cccc(-c3csc(NC(=O)CNC(=O)c4ccn(S(C)(=O)=O)c4)n3)c2)C[C@@H]1F` [Compound 180], the IC50 on BRM and at BRG-1 was > 0.01 µM in each case.
For `C[C@@H]1CN(c2cccc(-c3nc(NC(=O)CNC(=O)c4ccn(S(C)(=O)=O)c4)sc3F)c2)C[C@H](C)O1` [Compound 181, N-[2-[[4-[3-[(cis)-2,6-dimethylmorpholin-4-yl]phenyl]-5-fluoro-thiazol-2-yl]amino]-2-oxo-ethyl]-1-methylsulfonyl-pyrrole-3-carboxamide], the IC50 at BRM and at BRG-1 was > 0.01 µM each time.
With `C[C@@H]1CN(c2cccc(-c3csc(NC(=O)CNC(=O)c4ccn(S(C)(=O)=O)c4)n3)c2)CC[C@H]1O` [Compound 182, N-[2-[[4-[3-[(3R,4R)-4-hydroxy-3-methyl-1-piperidyl]phenyl]thiazol-2-yl]amino]-2-oxo-ethyl]-1-methylsulfonyl-pyrrole-3-carboxamide], the IC50 on BRM and at BRG-1 was < 0.01 µM in each case.
Take `C[C@H]1CN(c2cccc(-c3csc(NC(=O)CNC(=O)c4ccn(S(C)(=O)=O)c4)n3)c2)CC[C@@H]1O` [Compound 183, N-[2-[[4-[3-[(3S,4S)-4-hydroxy-3-methyl-1-piperidyl]phenyl]thiazol-2-yl]amino]-2-oxo-ethyl]-1-methylsulfonyl-pyrrole-3-carboxamide]: the IC50 at BRM and on BRG-1 was < 0.01 µM each time.
`COCCOC1CN(c2cccc(-c3csc(NC(=O)CNC(=O)c4ccn(S(C)(=O)=O)c4)n3)c2)C1` [Compound 184]: the IC50 at BRM and at BRG-1 was > 0.01 µM throughout.
For `CC1(n2ccc(C(=O)NCC(=O)Nc3nc(-c4cccc(N5CCC5)c4)cs3)c2)COC1` [Compound 185], the IC50 on BRM and on BRG-1 was > 0.01 µM throughout.
In the case of `CC(C)(C)n1ccc(C(=O)NCC(=O)Nc2nc(-c3cccc(N4CCC4)c3)cs2)c1` [Compound 186], the IC50 on BRM and on BRG-1 was > 0.01 µM throughout.
Turning to `C[C@@H]1CN(c2cccc(-c3csc(NC(=O)CNC(=O)c4ccn(S(C)(=O)=O)c4)n3)c2)CC[C@@H]1O` [Compound 188], the IC50 on BRM is < 0.01 µM; on BRG-1, > 0.01 µM.
On to `CN(C)C(=O)Cn1ccc(-c2cccc(-c3csc(NC(=O)CNC(=O)c4ccn(S(C)(=O)=O)c4)n3)c2)n1` [Compound 189], for which the IC50 at BRM and at BRG-1 was < 0.01 µM each time.
Take `CS(=O)(=O)n1ccc(C(=O)NCC(=O)Nc2nc(-c3cccc(N4CC[C@H](O)[C@@H](F)C4)c3)cs2)c1` [Compound 190]: the IC50 at BRM and at BRG-1 was < 0.01 µM throughout.
For the molecule `CS(=O)(=O)n1ccc(C(=O)NCC(=O)Nc2nc(-c3cccc(N4CC[C@H](O)[C@H](F)C4)c3)cs2)c1` [Compound 191], the IC50 at BRM was < 0.01 µM; at BRG-1 it was > 0.01 µM.
The matching figures for `COCCS(=O)(=O)n1ccc(C(=O)NCC(=O)Nc2nc(-c3cccc(N4C[C@@H](C)O[C@@H](C)C4)c3)cs2)c1` [Compound 193]: > 0.01 µM and > 0.01 µM.
For the molecule `CC1(C)CN(c2cccc(-c3csc(NC(=O)CNC(=O)c4ccn(S(C)(=O)=O)c4)n3)c2)CCC1O` (stereo not drawn) [Compound 194], the IC50 on BRM is < 0.01 µM; on BRG-1 it was > 0.01 µM.
In the case of `CS(=O)(=O)n1ccc(C(=O)NCC(=O)Nc2nc(-c3cccc(N4CC[C@@H](O)[C@H](F)C4)c3)cs2)c1` [Compound 195], the IC50 at BRM and at BRG-1 was < 0.01 µM each time.
Take `CS(=O)(=O)n1ccc(C(=O)NCC(=O)Nc2nc(-c3cccc(N4CC[C@@H](O)[C@@H](F)C4)c3)cs2)c1` [Compound 196]: the IC50 on BRM and on BRG-1 was < 0.01 µM in each case.
`CS(=O)(=O)n1ccc(C(=O)NCC(=O)Nc2nc(-c3cccc(N4CCC[C@H](C#N)C4)c3)cs2)c1` [Compound 197]: the IC50 on BRM was < 0.01 µM; at BRG-1 it was > 0.01 µM.
For the molecule `CO[C@H]1CN(c2cccc(-c3csc(NC(=O)CNC(=O)c4ccn(S(C)(=O)=O)c4)n3)c2)C[C@H]1OC` [Compound 199], the IC50 at BRM and at BRG-1 was > 0.01 µM in each case.
Turning to `COC[C@H]1CCN(c2cccc(-c3csc(NC(=O)CNC(=O)c4ccn(S(C)(=O)=O)c4)n3)c2)C1` [Compound 200], the IC50 at BRM and at BRG-1 was > 0.01 µM throughout.
Regarding `COC[C@@H]1CCN(c2cccc(-c3csc(NC(=O)CNC(=O)c4ccn(S(C)(=O)=O)c4)n3)c2)C1` [Compound 201], the IC50 was < 0.01 µM at BRM and > 0.01 µM at BRG-1.
Regarding `CS(=O)(=O)n1ccc(C(=O)NCC(=O)Nc2nc(-c3cccc(N4CCC5(CC4)COC5)c3)cs2)c1` [Compound 202], the IC50 at BRM and on BRG-1 was > 0.01 µM throughout.
For `CC1(C)CN(c2cccc(-c3csc(NC(=O)CNC(=O)c4ccn(S(C)(=O)=O)c4)n3)c2)CC(C)(C)O1` [Compound 203], the IC50 at BRM and on BRG-1 was > 0.01 µM throughout.
On to `CS(=O)(=O)n1ccc(C(=O)NCC(=O)Nc2nc(-c3cccc(N4CCCC5(COC5)C4)c3)cs2)c1` [Compound 204], for which the IC50 on BRM and on BRG-1 was > 0.01 µM in each case.
For the molecule `C[C@]1(O)CCCN(c2cccc(-c3csc(NC(=O)CNC(=O)c4ccn(S(C)(=O)=O)c4)n3)c2)C1` [Compound 205], the IC50 on BRM and on BRG-1 was > 0.01 µM throughout.
As for `C[C@@]1(O)CCCN(c2cccc(-c3csc(NC(=O)CNC(=O)c4ccn(S(C)(=O)=O)c4)n3)c2)C1` [Compound 206], the IC50 is < 0.01 µM at BRM and > 0.01 µM at BRG-1.
Turning to `CS(=O)(=O)n1ccc(C(=O)NCC(=O)Nc2nc(-c3cccc(N4C[C@H]5C[C@H]5C4)c3)cs2)c1` [Compound 207], the IC50 on BRM and on BRG-1 was > 0.01 µM throughout.
Take `CS(=O)(=O)n1ccc(C(=O)NCC(=O)Nc2nc(-c3cccc(N4CCC[C@H](F)C4)c3)cs2)c1` [Compound 208]: the IC50 at BRM and on BRG-1 was > 0.01 µM in each case.
Regarding `CCS(=O)(=O)n1ccc(C(=O)NCC(=O)Nc2nc(-c3cccc(N4CCC(O)CC4)c3)cs2)c1` [Compound 209], the IC50 at BRM and on BRG-1 was > 0.01 µM each time.
In the case of `CS(=O)(=O)n1ccc(C(=O)NCC(=O)Nc2nc(-c3cccc(N4CCCOCC4)c3)cs2)c1` [Compound 210], the IC50 on BRM and at BRG-1 was > 0.01 µM each time.
As for `CS(=O)(=O)n1ccc(C(=O)NCC(=O)Nc2nc(-c3cccc(N4CCC[C@@H](C#N)C4)c3)cs2)c1` [Compound 211], the IC50 on BRM and at BRG-1 was > 0.01 µM each time.
Regarding `CS(=O)(=O)n1ccc(C(=O)NCC(=O)Nc2nc(-c3cccc(N4CC(O)C4)c3)cs2)c1` [Compound 212], the IC50 on BRM and on BRG-1 was < 0.01 µM in each case.
In the case of `CS(=O)(=O)n1ccc(C(=O)NCC(=O)Nc2nc(-c3cccc(N4CCC[C@@H](F)C4)c3)cs2)c1` [Compound 213], the IC50 on BRM and at BRG-1 was > 0.01 µM each time.
For the molecule `CS(=O)(=O)n1ccc(C(=O)NCC(=O)Nc2nc(-c3cccc(N4CC5CC4CO5)c3)cs2)c1` (stereo not drawn) [Compound 214], the IC50 on BRM and on BRG-1 was > 0.1 µM each time.
With `CS(=O)(=O)n1ccc(C(=O)NCC(=O)Nc2nc(-c3cccc(N4CCC[C@@H](O)C4)c3)cs2)c1` [Compound 215], the IC50 at BRM and at BRG-1 was > 0.01 µM in each case.
Consider `CS(=O)(=O)n1ccc(C(=O)NCC(=O)Nc2nc(-c3cccc(N4CCC(C#N)CC4)c3)cs2)c1` [Compound 216], for which the IC50 on BRM and at BRG-1 was > 0.01 µM in each case.
With `CC(C)(C(=O)O)n1ccc(-c2cccc(-c3csc(NC(=O)CNC(=O)c4ccn(S(C)(=O)=O)c4)n3)c2)n1` [Compound 217, 2-methyl-2-[3-[3-[2-[[2-[(1-methylsulfonylpyrrole-3-carbonyl)amino]acetyl]amino]thiazol-4-yl]phenyl]pyrazol-1-yl]propanoic acid], the IC50 on BRM and on BRG-1 was > 0.01 µM each time.
Consider `CS(=O)(=O)n1ccc(C(=O)NCC(=O)Nc2nc(-c3cccc(-c4ccn(CC(=O)O)n4)c3)cs2)c1` [Compound 218], for which the IC50 on BRM and on BRG-1 was > 0.01 µM each time.
In the case of `C[C@H]1CN(c2cccc(-c3csc(NC(=O)CNC(=O)c4ccn(S(C)(=O)=O)c4)n3)c2)CC[C@H]1O` [Compound 219], the IC50 on BRM and at BRG-1 was > 0.01 µM throughout.
For the molecule `CN1CCN(c2cccc(-c3csc(NC(=O)CNC(=O)c4ccn(S(C)(=O)=O)c4)n3)c2)CC1=O` [Compound 220], the IC50 on BRM and at BRG-1 was > 0.01 µM in each case.

The values are drawn from patent US20230079819A1, “COMPOUNDS AND USES THEREOF” (Foghorn Therapeutics Inc., priority 2019, published 2023).
